Assay results reported in patent publication US20260234188A1, “CHEMOKINE-BINDING PEPTIDES” (Oxford University Innovation Limited, priority 2022, published 2026).
“Also recorded” adds a separate entry of the source.

System: panel of up to 42 human chemokines
Experiment: Phage-display next generation sequencing screen of overlapping hexadecapeptide libraries, chemokines displayed on streptavidin beads
Assay type: binding
Excerpt: FIG. 1. Exemplar results from phage display screens. Phage-display libraries were constructed and analysed as described in (McLaughlin, 2013) (Tonikian, 2007). […] FIG. 1A, CC chemokines against evasin A library. FIG. 1B, CXC chemokines against the evasin B library. FIG. 1C, CXC and CX3C chemokines against the viral chemokine binding protein library. FIG. 1D, CXC chemokines against the chemokine library. […] Identified hexadecapeptides were mapped to the position in the originating protein (x-axis) and to fold enrichment (log 2 E, left y-axis). Regions of interest (ROI) were defined where the cumulative residue log 2 E, (clog 2 E:r, right y-axis) exceeds the 95% upper confidence interval of the median clog 2 E:r for the entire protein (indicated as a horizontal dotted line in each panel). Proteins are referred to by their UniProt ID.
Hexadecapeptides were identified using a phage-display next generation sequencing approach (McLaughlin, 2013). Libraries containing a total of 55662 overlapping peptides (from the tick chemokine binding proteins shown in Tables 3A and 3B, the viral chemokine binding proteins shown in Table 3C, the human chemokines shown in Table 3 E, and the human/viral chemokine receptors and other chemokine-binding proteins shown in Table 3D) were first constructed, and then screened against a panel of up to 42 human chemokines, as shown in Table 3F.

[1] = log2E greater than 5, chemokines named by first part of UniProt Entry Name
[2] = log2E greater than 5, chemokines named by first part of UniProt entry name, C5a (control) binders excluded
[3] = log2E greater than 5, chemokines named by first part of UniProt Entry Name, peptides binding complement C5a (control) excluded

Substance	Chemokines Bound [1]	Chemokines Bound [3]	further results
CR5511 (FLGILGNGLVIIIATF)	CCL20, CCL22, and SDF1	–	–
CR1003 (ALAFIYVLMFLANAIG)	–	–	Chemokines Bound [2]: CCL17, CCL18, and CCL19, CCL20, and CCL28, X3CL1, and CXL10, SDF1, and IL8
CR26521 (WGLALLFALPDFIFLS)	CCL15, CXL13, and IL8	–	–
CR5349 (FIYVLMFLCNAIGNSL)	CCL19, CCL20,; also recorded: CXL10	–	–
CR27433 (YLLDFILALVGNTLAL)	CCL18, CCL19,; also recorded: CCL20, CCL25,; also recorded: CCL28, CXL10,; also recorded: CXL11	–	–
CR8427 (HTLRMTIFCLVLPLLV)	–	CCL28, CXL10, and CXL11, SDF1, and IL8	–
CR5027 (FFSQLVYFIYHAVSSY)	CCL17, CCL18, and CCL20, CXL10, and CXL11, SDF1, and IL8	–	–
CR7024 (GIITSVLAWVTAILAT)	–	CCL2, CCL22,; also recorded: CCL28, CXL10,; also recorded: CXL11, SDF1,; also recorded: CXL13, IL8	–
CR1004 (ALAFIYVLMFLCNAIG)	–	–	Chemokines Bound [2]: CCL17, CCL18,; also recorded: CCL19, CCL20,; also recorded: CXL10, CXL14
CR19824 (RVTLTALAVWGLALLF)	–	–	Chemokines Bound [2]: CCL2, CCL22,; also recorded: CCL25, CXL10,; also recorded: CXL11, SDF1,; also recorded: CXL14, IL8
CR9587 (IMYSIIAFVGLLGNGL)	–	CCL17, CCL18,; also recorded: CCL20, CXL14	–
EB2905 (SACSGDCVCVHRDNEP)	–	CXL10, CXL11, and SDF1	–
EB3094 (SGNCTCYHEDGKKVGL)	–	CXL10, CXL11, and SDF1	–
CR25167 (VLGLLLNSLALWVFSS)	CCL11, CCL17,; also recorded: CCL18, CXL11,; also recorded: CXL14	–	–
CR5475 (FLFHLAVADLLLVFIL)	CCL20, CCL22,; also recorded: CCL28, CXL10,; also recorded: CXL11, SDF1,; also recorded: CXL14	–	–
CR24900 (VIGFLVPLLAMSFCYL)	CCL15, CCL17,; also recorded: CCL18	–	–
CR15077 (LYAHLAAAFLWVVVAV)	–	–	Chemokines Bound [2]: CCL18, CCL19,; also recorded: CCL20, CCL22,; also recorded: CCL25, CCL28,; also recorded: CXL10, CXL11,; also recorded: SDF1, IL8
CR15063 (LWVVVFQFQHIMVGLI)	–	–	Chemokines Bound [2]: CCL17, CCL18, and CCL19, CCL2, and CCL20, CCL22, and CCL28, CCL8, and X3CL1, CXL10, and CXL11, SDF1, and CXL13, CXL14, and IL8
LTDGTACYVVERKVWD [HD2313]	–	CCL19, CCL20,; also recorded: CCL28	–

Substance	Chemokines Bound [1]	Chemokines Bound [3]	further results
CR14974 (LVTLPFWGISVAWHWV)	–	–	Chemokines Bound [2]: CCL18, CCL25,; also recorded: CCL28
CR9113 (IIFSYVVVFLVSWLPY)	–	CCL17, CCL20, and CCL22, CCL28, and X3CL1, CXL10, and CXL11, SDF1, and CXL13, CXL14, and IL8	–
EDDYTAYAPLTCYFTN [HD842]	–	CCL1, CCL17, and CCL4, CCL5, and CCL8	–
CR13966 (LPTMVFSFFYVIFCKA)	–	–	Chemokines Bound [2]: CCL20, CCL25,; also recorded: SDF1, CXL14
CR26762 (WVASILSSILDTIFHK)	CCL17, CCL18,; also recorded: X3CL1, CXL10,; also recorded: CXL11, IL8	–	–
CR2586 (CILVWLLAFCVSLPDT)	CCL20, CCL28,; also recorded: CXL10, CXL11,; also recorded: CXL14	–	–
CR5768 (FMFVLSVLGNLTVVCV)	–	CCL19, CCL22,; also recorded: CCL25	–
EB3975 (VGLCLSTEYTDFTKFP)	–	CXL10, CXL11,; also recorded: SDF1, CXL14	–
CR12439 (LGIMLFAYSMIIRTLQ)	–	–	Chemokines Bound [2]: CCL17, CCL18,; also recorded: CCL20, CCL25
CR15915 (MVFSFFYVIFAKALHD)	–	–	Chemokines Bound [2]: CCL1, CCL18,; also recorded: CCL19, CCL20
CR8675 (IAYSLIAVFGLLGNIL)	–	CCL17, CCL22,; also recorded: CCL25, CCL28,; also recorded: CXL11	–
CR12872 (LIYLFLLLWEDTQGWG)	–	–	Chemokines Bound [2]: CCL1, CCL18, and CCL19, CCL2, and CCL20, CCL25, and CXL10, SDF1, and IL8
CR27051 (YDLFIGIKIVYSFLWG)	CCL18, CCL2,; also recorded: CCL20, CCL25,; also recorded: CCL28, CXL10,; also recorded: CXL11, CXL14	–	–
CR27428 (YLKAFLAAVLGWHLAP)	CCL17, CCL18,; also recorded: CCL2, CCL20,; also recorded: X3CL1, CXL10,; also recorded: CXL11, SDF1,; also recorded: CXL14	–	–
CR8251 (HNKTLSFISLLILSFL)	–	CCL2, X3CL1, and IL8	–
CR26721 (WSLVFMAIERINYFAY)	CCL17, CCL18,; also recorded: CXL10	–	–
CR7642 (GSMLLSVLFTLYVSTL)	–	CCL25, CXL10,; also recorded: CXL11, CXL13	–
CR24063 (TWNLVLSQFFSILATM)	CCL1, CCL22,; also recorded: CXL11, CXL14	–	–
